In patent US20250325534A1, “MICROBIOCIDAL TETRAHYDROISOQUINOLINE DERIVATIVES” (SYNGENTA CROP PROTECTION AG, priority 2021, published 2025):

Assays:
Glomerella lagenarium = Glomerella lagenarium (Colletotrichum lagenarium) / liquid culture (anthracnose); assay type: cell-based; conditions: Colletotrichum orbiculare, 72 h, photometrically 3-4 days after application, read-out: control of Glomerella lagenarium
Experimental: (§1) Example B5: Glomerella Lagenarium (Colletotrichum Lagenarium)/Liquid Culture (Anthracnose) Conidia of the fungus from cryogenic storage are directly mixed into a nutrient broth (potato dextrose broth). After placing a DMSO solution of test compound into a microtiter plate (96-well format), the nutrient broth containing the fungal spores is added. The test plates are incubated at 24° C. and the inhibition of growth is measured photometrically 3-4 days after application.

Mycosphaerella arachidis = Mycosphaerella arachidis (Cercospora arachidicola) / liquid culture (early leaf spot); assay type: cell-based; conditions: 96 h, photometrically 4-5 days after application, read-out: control of Mycosphaerella arachidis
How it was run: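 Photometric growth inhibition, read 4-5 days post-application at 24 °C, of Cercospora arachidicola spores suspended in potato dextrose broth and exposed to test compound delivered from DMSO solution.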

Monographella nivalis = Monographella nivalis (Microdochium nivale) / liquid culture (foot rot cereals); assay type: cell-based; conditions: 96 h, photometrically 4-5 days after application, read-out: control of Monographella nivalis
How it was run: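 Test compound, applied as a DMSO solution, was challenged with fungal spores suspended in potato dextrose broth; after 4-5 days at 24° C, photometric readout gave inhibition of growth.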

[1] = test system: Mycosphaerella graminicola; assay: Mycosphaerella graminicola (Septoria tritici) / liquid culture (Septoria blotch); assay type: cell-based; conditions: Zymoseptoria tritici, 96 h, photometrically 4-5 days after application, read-out: control of Mycosphaerella graminicola
How it was run: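 Growth inhibition measured by photometry 4-5 days post application, at 24° C incubation. Test compound supplied as DMSO solution; fungal conidia from cryostorage suspended directly in potato dextrose broth as inoculum.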

Botryotinia fuckeliana = Botryotinia fuckeliana (Botrytis cinerea) / liquid culture (gray mould); assay type: cell-based; conditions: 72 h, growth inhibition photometrically 3-4 days after application, read-out: control of Botryotinia fuckeliana
Experimental: as §1, with “B2: Botryotinia Fuckeliana (Botrytis cinerea)/Liquid” for “B5: Glomerella Lagenarium (Colletotrichum Lagenarium)/Liquid”, “(Gray Mould)” for “(Anthracnose)”, “(Vogels” for “(potato dextrose”, “determined” for “measured”

Alternaria solani = Alternaria solani / tomato / leaf disc (early blight); assay type: in vivo; conditions: foliar, inoculated 2 days after application, vs untreated control
Experimental: Example B1: Alternaria solani/Tomato/Leaf Disc (Early Blight) Tomato leaf disks cv. Baby are placed on agar in multiwell plates (24-well format) and sprayed with the formulated test compound diluted in water. The leaf disks are inoculated with a spore suspension of the fungus 2 days after application. The inoculated leaf disks are incubated at 23° C./21° C. (day/night) and 80% relative humidity under a light regime of 12 h/12 h (light/dark) in a climate cabinet and the activity of a compound is assessed as percent disease control compared to untreated when an appropriate level of disease damage appears on untreated check disk leaf disks (5-7 days after application).

CC1c2ccc(Br)cc2C(C)(c2cnn(C)c2)CN1C(=O)c1cc(-c2ccc(F)cc2F)on1 (centres unmarked) [Compound P-215, [6-bromo-1,4-dimethyl-4-(1-methylpyrazol-4-yl)-1,3-dihydroisoquinolin-2-yl]-[5-(2,4-difluorophenyl)isoxazol-3-yl]methanone]
≥ 80%: inhibition of growth at 20 ppm (Glomerella lagenarium) | inhibition of growth at 20 ppm (Mycosphaerella arachidis) | inhibition of growth at 20 ppm (Monographella nivalis) | inhibition of growth at 20 ppm [1] | inhibition of growth at 20 ppm (Botryotinia fuckeliana)

Cc1c(C2(C)CN(C(=O)c3cc(-c4ccc(F)cc4F)on3)C(C)c3ccccc32)cnn1C (centres unmarked) [Compound P-16, [5-(2,4-difluorophenyl)isoxazol-3-yl]-[4-(1,5-dimethylpyrazol-4-yl)-1,4-dimethyl-1,3-dihydroisoquinolin-2-yl]methanone]
≥ 80%: inhibition of growth at 20 ppm (Glomerella lagenarium) | inhibition of growth at 20 ppm (Mycosphaerella arachidis) | inhibition of growth at 20 ppm (Monographella nivalis) | inhibition of growth at 20 ppm [1] | inhibition of growth at 20 ppm (Botryotinia fuckeliana)

Cn1cc(C2CN(C(=O)c3cc(-c4ccc(F)cc4F)on3)Cc3ccc(F)cc32)cn1 (centres unmarked) [Compound P-135, [5-(2,4-difluorophenyl)isoxazol-3-yl]-[6-fluoro-4-(1-methylpyrazol-4-yl)-3,4-dihydro-1H-isoquinolin-2-yl]methanone]
≥ 80%: inhibition of growth at 20 ppm (Mycosphaerella arachidis) | inhibition of growth at 20 ppm (Monographella nivalis) | inhibition of growth at 20 ppm [1] | inhibition of growth at 20 ppm (Botryotinia fuckeliana)

Cn1cc([C@@]2(C)CN(C(=O)c3nnc(-c4ccc(F)cc4F)s3)Cc3ccccc32)cn1 [Compound P-209, [5-(2,4-difluorophenyl)-1,3,4-thiadiazol-2-yl]-[(4S)-4-methyl-4-(1-methylpyrazol-4-yl)-1,3-dihydroisoquinolin-2-yl]methanone]
≥ 80%: inhibition of growth at 20 ppm (Glomerella lagenarium) | inhibition of growth at 20 ppm (Mycosphaerella arachidis) | inhibition of growth at 20 ppm (Monographella nivalis) | inhibition of growth at 20 ppm [1] | inhibition of growth at 20 ppm (Botryotinia fuckeliana)

COc1ccc2c(c1)C(c1cnn(C)c1)CN(C(=O)c1cc(-c3ccc(F)cc3F)on1)C2C (centres unmarked) [Compound P-47, [5-(2,4-difluorophenyl)isoxazol-3-yl]-[6-methoxy-1-methyl-4-(1-methylpyrazol-4-yl)-3,4-dihydro-1H-isoquinolin-2-yl]methanone]
≥ 80%: inhibition of growth at 20 ppm (Glomerella lagenarium) | inhibition of growth at 20 ppm (Mycosphaerella arachidis) | inhibition of growth at 20 ppm (Monographella nivalis) | inhibition of growth at 20 ppm [1] | inhibition of growth at 20 ppm (Botryotinia fuckeliana)

Cn1cc(C2CN(C(=O)c3cc(-c4ccc(F)cc4)on3)Cc3ccccc32)cn1 (centres unmarked) [Compound P-192, [5-(4-fluorophenyl)isoxazol-3-yl]-[4-(1-methylpyrazol-4-yl)-3,4-dihydro-1H-isoquinolin-2-yl]methanone]
≥ 80%: inhibition of growth at 20 ppm (Glomerella lagenarium) | inhibition of growth at 20 ppm [1] | inhibition of growth at 20 ppm (Botryotinia fuckeliana)

Cn1cc(C2CN(C(=O)c3noc(-c4cccc(F)c4)n3)Cc3ccccc32)cn1 (centres unmarked) [Compound P-92, [5-(3-fluorophenyl)-1,2,4-oxadiazol-3-yl]-[4-(1-methylpyrazol-4-yl)-3,4-dihydro-1H-isoquinolin-2-yl]methanone]
≥ 80%: inhibition of growth at 20 ppm (Glomerella lagenarium) | inhibition of growth at 20 ppm (Mycosphaerella arachidis) | inhibition of growth at 20 ppm (Monographella nivalis) | inhibition of growth at 20 ppm [1] | pest or weed control at 200 ppm (Alternaria solani)

Cn1cc(C2CN(C(=O)c3cc(-c4ccccc4)on3)Cc3ccccc32)cn1 (single isomer, unassigned) [Compound P-165]
≥ 80%: inhibition of growth at 20 ppm (Glomerella lagenarium) | inhibition of growth at 20 ppm (Mycosphaerella arachidis) | inhibition of growth at 20 ppm (Monographella nivalis) | inhibition of growth at 20 ppm [1] | pest or weed control at 200 ppm (Alternaria solani)

Cn1cc(C2CN(C(=O)c3cc(-c4cccc(F)c4)no3)Cc3ccccc32)cn1 (centres unmarked) [Compound P-159, [3-(3-fluorophenyl)isoxazol-5-yl]-[4-(1-methylpyrazol-4-yl)-3,4-dihydro-1H-isoquinolin-2-yl]methanone]
≥ 80%: inhibition of growth at 20 ppm (Mycosphaerella arachidis) | inhibition of growth at 20 ppm (Monographella nivalis) | inhibition of growth at 20 ppm [1] | inhibition of growth at 20 ppm (Botryotinia fuckeliana)
